From patent US20250276069A1, “HETEROBIFUNCTIONAL COMPOSITIONS FOR TARGETED PROTEIN DEGRADATION AND METHODS FOR THEIR USE” (THE SCRIPPS RESEARCH INSTITUTE, priority 2021, published 2025) come the findings set out here.

Entries after “also recorded” stand apart in the source; their conditions may differ.

The subject of this experiment is HCC1806 cells. Description: TMT MS quantitative proteomics of live cells treated with FragTAC probes (HCC1806). It is filed as cell-based, Homo Sapiens. Conditions: for Proteins targeted (downregulated) by FragTAC probe: value = downregulated protein; for Downregulated proteins targeted by FragTAC probes (protein listed for the probe code): cell line not given. As for the experimental part:
Mammalian cell culture: MDA-MB-231 cells (ATCC) were maintained in DMEM supplemented with 10% (v/v) fetal bovine serum (FBS), 1% (v/v) penicillin/streptomycin, and 2 mM glutamine. HCC1806 cells (ATCC) were maintained in RPMI supplemented with 10% (v/v) fetal bovine serum (FBS), 1% (v/v) penicillin/streptomycin, and 2 mM glutamine. All cell lines were grown at 37° C. in a humidified 5% CO2 atmosphere.
Treatment of Live Cells with FragTAC Probes: Separate 6 cm (for gel-based analyses) or 10 cm (for MS-based analyses) dishes of MDA-MB-231 cells or HCC1806 cells were grown to 80-95% confluency with DMEM media and RPMI media respectively. The growth medium was aspirated, and the cells were washed with Dulbecco's phosphate buffered saline (DPBS). The cells were incubated with serum-free media containing fragment probes (200 μM) or control probes (200 μM) for 6 hours at 37° C. under a 5% CO2 atmosphere. The cultures were scraped, washed with cold DPBS, and collected into 15 mL centrifuge tubes, then transferred to 1.5 mL Eppendorf tubes. The cell suspensions were centrifuged (1,400 g, 3 min) and the pellets were stored at −80° C. until the next stage of processing.
Sample preparation for TMT MS Quantitative Proteomics: For treatment of cell lysates, cells were collected, cell pellets were resuspended in 100 μL DPBS containing 1× Halt protease inhibitor cocktail, and lysed by sonication (15 ms on, 40 ms off, 15% amplitude, 1 s total). Protein concentrations were normalized (2 mg/mL in 100 μL with cold DPBS) using the Lowry Protein Assay (Pierce). Urea (48 mg) was weighed for each sample in 2 mL LoBind Eppendorf tubes and cell lysates (100 μL=200 μg) were added (final urea concentration=8 M). Pellets were resuspended in a freshly prepared 1:1 solution (50 μL) TCEP (200 mM in DPBS) and K2CO3 (600 mM in DPBS) and incubated (30 min, 37° C.) while shaking. After reaction, a solution of freshly prepared iodoacetamide (70 μL, 400 mM in DPBS) was added and incubated for 30 min at room temperature while protected from light. After reaction, 1.8 mL of cold 3:1:2 MeOH/CHCl3/H2O solution was added to each tube, and the samples were centrifuged (10,000×g, 10 min, 4° C.), forming a disc. The supernatant was carefully removed, MeOH (600 μL) was added, samples were centrifuged as previously described and the supernatant was removed. Cell pellets were resuspended in TEAB (160 μL, 100 mM, pH 8.5) and sonicated as described previously. Endoproteinase LysC (20 μL, ½ vial, 10 μg dissolved in 220 μL of 100 mM TEAB pH 8.5) was added to each and incubated at 37° C. for 2 h with shaking. Sequencing-grade modified porcine trypsin (20 μL, 1 vial, 20 μg dissolved in 220 μL of 100 mM TEAB pH 8.5), a solution of Protease Max (2 μL, 1% (w/v) in 100 mM TEAB pH 8.5) and a solution of CaCl2) (2 μL, 100 mM) were added to the samples and incubated at 37° C. overnight (14 h) with shaking. The digest was separated by centrifugation (12,000×g, 10 min, 4° C.). Peptide concentration was determined using Pierce Quantitative Fluorometric Peptide Assay Kit (Thermo Fisher Scientific, 23290) according to manufacturer's instructions. MS-grade acetonitrile (12.5 μL) was added to each and samples were labeled with respective TMT 10 plex isotope (8 μL, 20 μg/μL) for 1 h with occasional vortexing at RT. To quench, hydroxylamine (3 μL, 5% v/v) was added to each sample, vortexed, and incubated for 15 min at RT. Formic acid (5 μL) was added to each tube to acidify and the samples were dried under vacuum centrifugation. The samples were combined by redissolving the contents of one tube in a solution of trifluoroacetic acid (TFA, 400 μL, 0.1% in water) and transferred into each sample until all samples were redissolved. The stepwise process was repeated with formic acid (Buffer A, 200 μL, 0.1% in water) for a final volume of 600 μL. […]

Where [1] appears, read: protein with 2 unique peptides or more, depleted 2-fold or more relative to DMSO control (P value <0.05).
[2] abbreviates: TMT proteomics, targets with 2 unique peptides or more and depleted 2-fold or more relative to DMSO control (P value <0.05).

With `Cc1ncsc1-c1ccc(CNC(=O)[C@@H]2C[C@@H](O)CN2C(=O)[C@@H](NC(=O)CCOCCOCCOCCC(=O)N2CCN(C(c3ccccc3)c3ccccc3)C[C@@H]2c2ccccc2)C(C)(C)C)cc1` [CMC-6-123, (2S,4R)-1-((S)-16-((S)-4-benzhydryl-2-phenylpiperazin-1-yl)-2-(tert-butyl)-4,16-dioxo-7,10,13-trioxa-3-azahexadecanoyl)-4-hydroxy-N-(4-(4-methylthiazol-5-yl)benzyl)pyrrolidine-2-carboxamide], the “Proteins targeted (downregulated) by FragTAC probe” value (shortened to “Proteins targeted (downregulated)”) under setting [1] was “ZBTB1; also recorded: ZNF217”.
`Cc1ncsc1-c1ccc(CNC(=O)[C@@H]2C[C@@H](O)CN2C(=O)[C@@H](NC(=O)CCOCCC(=O)N2CCN(C(c3ccccc3)c3ccccc3)CC2)C(C)(C)C)cc1` [IF-049, (2S,4R)-1-((S)-2-(3-(3-(4-benzhydrylpiperazin-1-yl)-3-oxopropoxy)propanamido)-3,3-dimethylbutanoyl)-4-hydroxy-N-(4-(4-methylthiazol-5-yl)benzyl)pyrrolidine-2-carboxamide]: the “Proteins targeted (downregulated)” value under setting [1] is given as “YIPF3; also recorded: YLPM1; also recorded: ZNF185”.
`Cc1ncsc1-c1ccc(CNC(=O)[C@@H]2C[C@@H](O)CN2C(=O)[C@@H](NC(=O)CCOCCOCCOCCC(=O)N2CCN(CC3=C(c4ccc(Cl)cc4)CC(C)(C)CC3)CC2)C(C)(C)C)cc1` [IF-060, (2S,4R)-1-((S)-2-(tert-butyl)-16-(4-((4′-chloro-5,5-dimethyl-3,4,5,6-tetrahydro-[1,1′-biphenyl]-2-yl)methyl)piperazin-1-yl)-4,16-dioxo-7,10,13-trioxa-3-azahexadecanoyl)-4-hydroxy-N-(4-(4-methylthiazol-5-yl)benzyl)pyrrolidine-2-carboxamide]: the “Downregulated proteins targeted by FragTAC probes (protein listed for the probe code)” value (shortened to “Downregulated proteins targeted”) under setting [2] was “GHITM”.
Still for that read-out and setting: then `CCn1c2ccccc2c2ccc(CN(C(=O)CCOCCOCCOCCC(=O)N[C@H](C(=O)N3C[C@H](O)C[C@H]3C(=O)NCc3ccc(-c4scnc4C)cc3)C(C)(C)C)C3CCCC3)cc21` [IF-062, (2S,4R)-1-((S)-17-(tert-butyl)-2-cyclopentyl-1-(9-ethyl-9H-carbazol-2-yl)-3,15-dioxo-6,9,12-trioxa-2,16-diazaoctadecan-18-oyl)-4-hydroxy-N-(4-(4-methylthiazol-5-yl)benzyl)pyrrolidine-2-carboxamide], with “GHITM”.
For `Cc1ncsc1-c1ccc(CNC(=O)[C@@H]2C[C@@H](O)CN2C(=O)[C@@H](NC(=O)CCOCCOCCOCCC(=O)NCCc2cn(Cc3ccccc3)c3ccccc23)C(C)(C)C)cc1` [IF-063, (2S,4R)-1-((S)-19-(1-benzyl-1H-indol-3-yl)-2-(tert-butyl)-4,16-dioxo-7,10,13-trioxa-3,17-diazanonadecanoyl)-4-hydroxy-N-(4-(4-methylthiazol-5-yl)benzyl)pyrrolidine-2-carboxamide], the “Proteins targeted (downregulated)” value under setting [2] was “TMBIM6”.
As to `Cc1ncsc1-c1ccc(CNC(=O)[C@@H]2C[C@@H](O)CN2C(=O)[C@@H](NC(=O)CCOCCOCCOCCC(=O)N2CCCC2c2noc(Cc3ccc(Br)cc3)n2)C(C)(C)C)cc1` (stereo partly drawn) [IF-064, (2S,4R)-1-((2S)-16-(2-(5-(4-bromobenzyl)-1,2,4-oxadiazol-3-yl)pyrrolidin-1-yl)-2-(tert-butyl)-4,16-dioxo-7,10,13-trioxa-3-azahexadecanoyl)-4-hydroxy-N-(4-(4-methylthiazol-5-yl)benzyl)pyrrolidine-2-carboxamide], the “Downregulated proteins targeted” value under setting [2] is recorded as “GHITM”.
As for `Cc1ncsc1-c1ccc(CNC(=O)[C@@H]2C[C@@H](O)CN2C(=O)[C@@H](NC(=O)CCOCCOCCOCCC(=O)NC2=NC(c3ccccc3)c3ccccc3NC2=O)C(C)(C)C)cc1` (stereo partly drawn) [IF-065, (2S,4R)-1-((2S)-2-(tert-butyl)-4,16-dioxo-16-((2-oxo-5-phenyl-2,5-dihydro-1H-benzo[e][1,4]diazepin-3-yl)amino)-7,10,13-trioxa-3-azahexadecanoyl)-4-hydroxy-N-(4-(4-methylthiazol-5-yl)benzyl)pyrrolidine-2-carboxamide], under setting [2], the “Downregulated proteins targeted” value is given as “BRD2” and the “Proteins targeted (downregulated)” value was “TMBIM6”.
Turning to `Cc1ncsc1-c1ccc(CNC(=O)[C@@H]2C[C@@H](O)CN2C(=O)[C@@H](NC(=O)CCOCCOCCOCCNC(=O)CCc2nc(-c3ccccc3)c(-c3ccccc3)o2)C(C)(C)C)cc1` [IF-072, (2S,4R)-1-((S)-2-(tert-butyl)-19-(4,5-diphenyloxazol-2-yl)-4,17-dioxo-7,10,13-trioxa-3,16-diazanonadecanoyl)-4-hydroxy-N-(4-(4-methylthiazol-5-yl)benzyl)pyrrolidine-2-carboxamide], the “Proteins targeted (downregulated)” value under setting [1] was “ZC3H14; also recorded: ZNF800”.
Consider `Cc1ncsc1-c1ccc(CNC(=O)[C@@H]2C[C@@H](O)CN2C(=O)[C@@H](NC(=O)CCOCCOCCOCCNC(=O)c2[nH]c3ccc(Cl)cc3c2-c2ccccc2)C(C)(C)C)cc1` [IF-073, 5-chloro-N-((S)-14-((2S,4R)-4-hydroxy-2-((4-(4-methylthiazol-5-yl)benzyl)carbamoyl)pyrrolidine-1-carbonyl)-15,15-dimethyl-12-oxo-3,6,9-trioxa-13-azahexadecyl)-3-phenyl-1H-indole-2-carboxamide], for which, under setting [2], the “Downregulated proteins targeted” value is “CYP1B1 and FAM177A1 and GHITM and LGMN”; the “Proteins targeted (downregulated)” value was “NPC2 and PCLAF and RPLP1 and SETX and TXNIP”.
As for `Cc1ccc(S(=O)(=O)N2CCN(C(=O)CCCCC(=O)N[C@H](C(=O)N3C[C@H](O)C[C@H]3C(=O)NCc3ccc(-c4scnc4C)cc3)C(C)(C)C)CC2)cc1` [IF-080, (2S,4R)-1-((S)-3,3-dimethyl-2-(6-oxo-6-(4-tosylpiperazin-1-yl)hexanamido)butanoyl)-4-hydroxy-N-(4-(4-methylthiazol-5-yl)benzyl)pyrrolidine-2-carboxamide], under setting [2], the “Downregulated proteins targeted” value is “CTSZ and INCENP and KIF20A and KIF22 and ANLN”; the “Proteins targeted (downregulated)” value is “PRC1 and RACGAP1 and TPX2 and TXNIP and UHRF1”. The “Proteins targeted (downregulated)” value under setting [1] is “ZBTB11”.
As to `Cc1ncsc1-c1ccc(CNC(=O)[C@@H]2C[C@@H](O)CN2C(=O)[C@@H](NC(=O)CCOCCOCCC(=O)N2CCN(C(c3ccccc3)c3ccccc3)CC2)C(C)(C)C)cc1` [LPC020, (2S,4R)-1-((S)-2-(3-(2-(3-(4-benzhydrylpiperazin-1-yl)-3-oxopropoxy)ethoxy)propanamido)-3,3-dimethylbutanoyl)-4-hydroxy-N-(4-(4-methylthiazol-5-yl)benzyl)pyrrolidine-2-carboxamide], under setting [1], the “Proteins targeted (downregulated)” value is “YIPF3 and ZC3H13 and ZC3HC1 and ZFR and ZMYM4 and ZNF638 and ZNF830”.
For `Cc1ncsc1-c1ccc(CNC(=O)[C@@H]2C[C@@H](O)CN2C(=O)[C@@H](NC(=O)CCOCCOCCC(=O)NCCC(c2ccccc2)c2ccccc2)C(C)(C)C)cc1` [LPC022, (2S,4R)-1-((S)-2-(tert-butyl)-4,13-dioxo-17,17-diphenyl-7,10-dioxa-3,14-diazaheptadecanoyl)-4-hydroxy-N-(4-(4-methylthiazol-5-yl)benzyl)pyrrolidine-2-carboxamide], the “Proteins targeted (downregulated)” value under setting [1] is “ZFR and ZMYM4”.
